Reference: PMC4506051, “Pharmacokinetic Profiles of Active Ingredients and Its Metabolites Derived from Rikkunshito, a Ghrelin Enhancer, in Healthy Japanese Volunteers: A Cross-Over, Randomized Study” (PLoS ONE, 2015)
Like-named read-outs stand apart in the source and are kept apart here.

Legend:
[1] = Randomized crossover quantitative trial: plasma pharmacokinetics of nine ingredients after rikkunshito 2.5, 5.0 or 7.5 g; conditions: for Tmax / AUC(0-t) / Cmax / half-life: human
Text: The first trial was a nonrandomized, open-label, one-period design. The second trial was a randomized, open-label, three-arm, three-period design (Fig 1). With respect to inclusion criteria, the studies included healthy Japanese adults between 20 and 45 years of age with a body mass index between 18 and 25 who were willing and able to comply with the study requirements. Exclusion criteria for this study included a history of significant liver, heart, or vessel disease and consumption of supplements that contained any rikkunshito ingredients or any drug within 3 days to 1 week before the first dose. Other standard exclusion criteria included relevant allergies, pregnant or nursing females, and any alcohol or nicotine use. The sample size was set as more than 15 based on the Ministry of Health, Labour and Welfare’s guidelines. Subjects allocated to a screening test were randomized to one of three groups by the central allocation system (allocation ratio 1:1:1). A random sequence was generated using a computer. The safety endpoint was evaluated in all volunteers. This endpoint was defined on the basis of a physician’s judgement after examination or observation that a serious adverse event had occurred. Adverse events included death, a life-threatening event, an event requiring hospitalization for treatment or an extended stay in hospital, an event resulting in permanent or temporary disability or dysfunction, an event resulting in a congenital abnormality, or any other serious medical phenomenon. With respect to side effects, no specific conditions were defined, and all adverse events for which no causal relationship with the drug could be excluded were deemed to be side effects. In each stage during the 48-h period following rikkunshito administration, the physician monitored the patient for subjective symptoms, objective findings, swelling, body temperature (axillary), blood pressure (sitting), and pulse (sitting). The physician also conducted a hematological examination to measure the patient’s red blood cell, leucocyte and platelet counts, hemoglobin level, and hematocrit value. A biochemical examination was conducted to determine total protein, blood urea nitrogen, creatinine, uric acid, aspartate aminotransferase, alanine aminotransferase, total bilirubin, alkaline phosphatase, γ-glutamyltranspeptidase albumin, prothrombin time, total cholesterol, C-reactive protein, and potassium to identify any abnormalities in comparison with the subject’s condition prior to administration. All participants fasted for 12 h before administration and 4 h after administration of the study drug.
In the second quantitative trial, 12-mL blood samples were collected at 0 (preadministration), 0.25, 0.5, 1, 2, 3, 4, 6, 8, 10, 12, 24, and 48 h after a single oral administration of rikkunshito (Lot H05142). A total of 3 daily doses were used in this trial, i.e., the clinical dose per administration (2.5 g) as the lowest dose, the clinical daily dose (7.5 g) as the highest dose, and an intermediate dose (5.0 g), to broadly discuss the pharmacokinetic characteristics of the ingredients measured. The trial participants were hospitalized overnight on the day they ingested rikkunshito, and returned home the following day after blood samples were collected at the 24-h time point. The participants returned to the hospital to provide blood samples at 48 h. The blood was immediately centrifuged at 1700 ×g for 15 min to obtain plasma. Plasma fractions were stored at −20°C or lower until analysis.
Plasma, urine, and rikkunshito formulation samples were analyzed for rikkunshito ingredients concentrations using a liquid chromatography–mass spectrometry with tandem mass spectrometer assay (LC–MS/MS; API5000, Triple Quad 6500, or QTRAP5500; AB Sciex, Tokyo, Japan) or gas chromatography–mass spectrometry. Further information of analytical methods can be found at S1 Appendix.

[2] = Method validation: stability in standard, stock and working solution; conditions: for Short-term stability of standard solution, RR: at room temperature for 24 h
[3] = cited from earlier work; for Maximum plasma concentration in the preliminary pharmacokinetics study: 7.5 g dosage
[4] = Stability of ingredients in gastric pH solution (pH 1.2, 37°C); format: physicochemical
Experimental: Rikkunshito gradually dissolved in acidic solution (pH 1.2) at 37°C, and the concentration of atractylodin after adding 0.25, 0.5, 1, and 2 h was measured by gas chromatography–mass spectrometry.

[5] = plasma, po, 2.5 g, AUC0-last, rikkunshito 2.5 g single oral, n = 21, geometric mean (95% CI)
[6] = plasma, po, 2.5 g, C max, rikkunshito 2.5 g single oral, n = 21, geometric mean (95% CI)
[7] = plasma, po, 2.5 g, Median t max (range), rikkunshito 2.5 g single oral, n = 21, median (minimum–maximum)
[8] = plasma, po, 5 g, AUC0-last, rikkunshito 5.0 g single oral, n = 19, geometric mean (95% CI)
[9] = plasma, po, 5 g, C max, rikkunshito 5.0 g single oral, n = 19, geometric mean (95% CI)
[10] = plasma, po, 5 g, Median t max (range), rikkunshito 5.0 g single oral, n = 19, median (minimum–maximum)
[11] = plasma, po, 5 g, t 1/2, rikkunshito 5.0 g single oral, n = 19, geometric mean (95% CI)
[12] = plasma, po, 7.5 g, AUC0-last, rikkunshito 7.5 g single oral, n = 19, geometric mean (95% CI)
[13] = plasma, po, 7.5 g, C max, rikkunshito 7.5 g single oral, n = 19, geometric mean (95% CI)
[14] = plasma, po, 7.5 g, t 1/2, rikkunshito 7.5 g single oral, n = 19, geometric mean (95% CI)
[15] = rikkunshito 7.5 g single oral, n = 19, geometric mean (95% CI)
[16] = rikkunshito 7.5 g single oral, n = 19, median (minimum–maximum)
[17] = plasma, po, 7.5 g, Median t max (range), rikkunshito 7.5 g single oral, n = 19, median (minimum–maximum)
[18] = refrigerator 128 days, higher concentration (10 / 4 / 50 ng/mL)
[19] = refrigerator 128 days, lower concentration (0.1 / 0.04 / 0.5 ng/mL)
[20] = refrigerator (1°C to 8°C) 54 days, 0.1 mg/mL (naringenin 0.5 mg/mL)
[21] = refrigerator (1°C to 8°C) 129 days, 0.1 mg/mL (naringenin 0.5 mg/mL)

| Structure (SMILES) | AUC(0-t) [1, 5] [ng·h/mL] | Cmax [1, 6] [ng/mL] | Tmax [1, 7] [h] | AUC(0-t) [1, 8] [ng·h/mL] | Cmax [1, 9] [ng/mL] | Tmax [1, 10] [h] | half-life [1, 11] [h] | AUC(0-t) [1, 12] [ng·h/mL] | Cmax [1, 13] [ng/mL] | half-life [1, 14] [h] | t 1/2 [1, 15] | Median t max (range) [1, 16] | Maximum plasma concentration in the preliminary pharmacokinetics study [3] [ng/mL] | Tmax [1, 17] [h] | Working solution stability, RR [2, 18] [%] | Working solution stability, RR [2, 19] [%] | Stock solution stability, RR [2, 20] | Stability in gastric pH solution, Quantitative value ([4]; 0.5 h, pH 1.2) [ng/mL] | Stability in gastric pH solution, Quantitative value ([4]; 1 h, pH 1.2) [ng/mL] | Stability in gastric pH solution, Quantitative value ([4]; 2 h, pH 1.2) [ng/mL] | also measured |
| --- | --- | --- | --- | --- | --- | --- | --- | --- | --- | --- | --- | --- | --- | --- | --- | --- | --- | --- | --- | --- | --- |
| CC1(C)[C@@H](O)CC[C@]2(C)[C@H]3C(=O)C=C4[C@@H]5C[C@@](C)(C(=O)O)CC[C@]5(C)CC[C@@]4(C)[C@]3(C)CC[C@@H]12 [18β-Glycyrrhetinic acid] | 292 | 23 | 8 | 638 | 44.2 | 8 | 8.94 | 832 | 55.6 | > 10 | 11.7 (8.90–15.3) h | 8.00 (5.98–23.7) h |  |  |  |  |  |  |  |  | Tmax ([1]; plasma, oral, t max, after rikkunshito administration, dose not given): 8 h; Median t max (range) ([1]; rikkunshito 7.5 g single oral, n = 19, median (minimum–maximum), listed as 18β-glycyrrhetinic acid): exceeding 3 h; Working solution stability, RR ([2]; 8 ng/mL, refrigerator (1°C to 8°C) for 53 days): 108.4%; Working solution stability, RR ([2]; 800 ng/mL, refrigerator (1°C to 8°C) for 53 days): 100.7%; Stock solution stability, RR ([2]; 0.8 mg/mL, refrigerator (1°C to 8°C) for 54 days): 54 days: 100.0%; Stock solution stability, RR ([2]; 0.8 mg/mL, refrigerator (1°C to 8°C) for 129 days): 129 days: 100.0%; half-life ([3]; protocol rationale for final sampling time): approximately 10 h |
| C/C=C/C#CC#C/C=C/c1ccco1 [Atractylodin] |  |  |  |  |  |  |  |  |  |  | 0.888 (0.687–1.15) h | 0.500 (0.250–1.00) h | 1.84 ± 0.626 |  |  |  |  |  |  |  | Plasma concentration just before the administration ([1]; all subjects, quantitative trial): BQL; AUC(0-t) ([1]; in vivo, po, 2.5 g): 0.318 ng·h/mL; Cmax ([1]; in vivo, po, 2.5 g): 0.531 ng/mL; Tmax ([1]; in vivo, po, 2.5 g, Median t max (range), rikkunshito 2.5 g single oral, n = 21, median (minimum–maximum)): 0.5 h; AUC(0-t) ([1]; in vivo, po, 5 g): 1.06 ng·h/mL; Cmax ([1]; in vivo, po, 5 g): 1.02 ng/mL; Tmax ([1]; in vivo, po, 5 g, Median t max (range), rikkunshito 5.0 g single oral, n = 19, median (minimum–maximum)): 0.5 h; half-life ([1]; in vivo, po, 5 g, t 1/2, rikkunshito 5.0 g single oral, n = 19, geometric mean (95% CI)): 0.746 h; AUC(0-t) ([1]; in vivo, po, 7.5 g): 1.76 ng·h/mL; Cmax ([1]; in vivo, po, 7.5 g): 1.57 ng/mL; Tmax ([1]; in vivo, po, 7.5 g, Median t max (range), rikkunshito 7.5 g single oral, n = 19, median (minimum–maximum)): ≤ 1 h; Short-term stability of standard solution, RR ([2]; atractylodin 1.00 ng/mL): 104.6%; Short-term stability of standard solution, RR ([2]; atractylodin 5000 ng/mL): 106.7%; Stability in a solution with the same pH as that in the stomach ([4]; pH 1.2, 37°C, S10 Table): stable; Stability in gastric pH solution, Quantitative value ([4]; rikkunshito in acidic solution (pH 1.2) at 37°C, 0.5 h): 9.03 ng/mL; Stability in gastric pH solution, Quantitative value ([4]; rikkunshito in acidic solution (pH 1.2) at 37°C, 1 h): 9.72 ng/mL; Stability in gastric pH solution, Quantitative value ([4]; rikkunshito in acidic solution (pH 1.2) at 37°C, 2 h): 8.13 ng/mL |
| COc1ccc(-c2oc3c(OC)c(OC)c(OC)c(OC)c3c(=O)c2OC)cc1OC [Heptamethoxyflavone, 3,3′,4′,5,6,7,8-heptamethoxyflavone] | 0.0849 | 0.0388 | 0.5 | 0.124 | 0.0582 | 1 | 1.5 | 0.225 | 0.105 |  | 1.51 (1.15–1.98) h | 1.00 (0.250–1.02) h | 0.253 ± 0.301 | ≤ 1 | 98.8 | 101.6 | 54 days: 98.7% | 25.5 | 30.7 | 28.7 | half-life ([1]; plasma, po, 2.5 g, t 1/2, rikkunshito 2.5 g single oral, n = 21, geometric mean (95% CI)): 1.92 h; t 1/2 ([1]; rikkunshito 7.5 g single oral, n = 19, geometric mean (95% CI), listed as heptamethoxyflavone): < 10 h; Working solution stability, RR ([2]; refrigerator 53 days, higher concentration (pachymic acid 10, heptamethoxyflavone 4, naringenin 50 ng/mL)): 100.4%; Working solution stability, RR ([2]; refrigerator 53 days, lower concentration (pachymic acid 0.1, heptamethoxyflavone 0.04, naringenin 0.5 ng/mL)): 109.3%; Stock solution stability, RR [2, 21]: 129 days: 92.7% |
| O=C(/C=C/c1ccc(O)cc1)c1ccc(O)cc1O [Isoliquiritigenin] | 0.0307 | 0.0205 | 0.25 | 0.0766 | 0.0321 | 0.25 | 4.12 | 0.122 | ~0.0428 |  | 3.26 (1.69–6.31) h | 0.250 (0.250–4.00) h |  |  |  |  |  | 15.2 | 15.5 | 15.2 | C max [1, 15]: 42.8 (30.4–60.3) pg/mL; t 1/2 ([1]; rikkunshito 7.5 g single oral, n = 19, geometric mean (95% CI), listed as isoliquiritigenin): < 10 h; Median t max (range) ([1]; rikkunshito 7.5 g single oral, n = 19, median (minimum–maximum), listed as isoliquiritigenin): ≤ 1 h; Working solution stability, RR ([2]; 0.02 ng/mL, refrigerator (1°C to 8°C) for 53 days): 89.9%; Working solution stability, RR ([2]; 0.02 ng/mL, refrigerator (1°C to 8°C) for 128 days): 108.2%; Working solution stability, RR ([2]; 2 ng/mL, refrigerator (1°C to 8°C) for 53 days): 92.7%; Working solution stability, RR ([2]; 2 ng/mL, refrigerator (1°C to 8°C) for 128 days): 102.2%; Stock solution stability, RR ([2]; 0.1 mg/mL, refrigerator (1°C to 8°C) for 54 days): 54 days: 96.9%; Stock solution stability, RR ([2]; 0.1 mg/mL, refrigerator (1°C to 8°C) for 129 days): 129 days: 96.9% |
| O=C1C[C@@H](c2ccc(O)cc2)Oc2cc(O)cc(O)c21 [Naringenin] | 1.65 | 0.376 | 5.83 | 3.32 | 0.878 | 4 | 4.46 | 4.63 | 1.15 | < 10 | 5.38 (3.31–8.76) h | 4.00 (2.00–6.00) h | 0.162 ± 0.0392 | > 3 | 99.8 | 102.6 | 54 days: 97.5% | 2030 | 2140 | 1990 | Stock solution stability, RR [2, 21]: 129 days: 96.7% |
